23 molecules from patent publication US10344025B2, “GLS1 inhibitors for treating disease” (Board of Regents, The University of Texas System, priority 2014, dated 2019) can be followed below.

Assay [1] addresses purified recombinant human GAC (GLS1) (Homo sapiens (Human), UniProt O94925). Description: GLS1 Enzymatic Activity Assay (dual-coupled enzymatic assay, resorufin/Amplex UltraRed readout).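 Further: glutamate from GAC coupled via glutamate oxidase and peroxidase to resorufin, read as fluorescence (ex 530, em 590 nm) kinetically or at 20 min, four-parameter logistic IC50 fit.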 Format: biochemical.
For assay [2], the system named is A549 cells. Description: Proliferation Assay (A549 viability, Cell Titer Fluor, 72 hours). Format: cell-based. Particulars: Homo sapiens, A549, 72 h. An outline of the steps: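 Cell Titer Fluor fluorescence after 72 h compound treatment (0.5% DMSO, 37 °C, 5% CO2) of A549 cells plated 24 h earlier at 1000/well. Four-parameter logistic fitting gave IC50.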

As usually defined, the IC50 is the concentration at which inhibition is half-maximal. The term EC50 denotes the midpoint of the concentration-response curve. A higher EC50 goes with a less potent agent.

Sequence of purified recombinant human GAC (GLS1) (O94925 other isoform, or with tags, fused parts or gaps): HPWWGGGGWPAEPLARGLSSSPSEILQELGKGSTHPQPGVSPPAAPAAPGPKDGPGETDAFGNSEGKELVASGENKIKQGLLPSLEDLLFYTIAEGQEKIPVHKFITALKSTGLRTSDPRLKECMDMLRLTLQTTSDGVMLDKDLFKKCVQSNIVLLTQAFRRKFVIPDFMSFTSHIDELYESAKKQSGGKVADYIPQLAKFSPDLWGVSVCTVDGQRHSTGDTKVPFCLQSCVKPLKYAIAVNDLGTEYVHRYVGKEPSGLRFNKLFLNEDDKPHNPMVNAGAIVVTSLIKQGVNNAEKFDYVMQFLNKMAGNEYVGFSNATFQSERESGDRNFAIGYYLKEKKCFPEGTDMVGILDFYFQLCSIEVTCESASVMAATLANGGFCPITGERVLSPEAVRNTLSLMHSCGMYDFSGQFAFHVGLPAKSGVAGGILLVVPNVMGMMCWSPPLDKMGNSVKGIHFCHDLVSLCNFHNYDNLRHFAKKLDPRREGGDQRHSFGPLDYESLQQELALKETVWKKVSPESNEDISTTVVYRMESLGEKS

For `O=C(Cc1cc(Cl)ccc1F)Nc1cn(CCCCn2cc(C(=O)NCc3cccc(OC(F)(F)F)c3)nn2)nn1` [Example 385, 1-(4-{4-[2-(5-chloro-2-fluorophenyl)acetamido]-1H-1,2,3-triazol-1-yl}butyl)-N-{[3-(trifluoromethoxy)phenyl]methyl}-1H-1,2,3-triazole-4-carboxamide], the concentration for half-maximal inhibition (IC50) in assay [1] is under 100 nM. The same molecule returned a concentration giving a half-maximal response (EC50) in assay [2] of under 100 nM.
Turning to `O=C(Cc1cc(Cl)ccc1F)Nc1cn(CCCCn2cc(C(=O)NCc3cc(OC(F)(F)F)ccc3F)nn2)nn1` [Example 386, 1-(4-{4-[2-(5-chloro-2-fluorophenyl)acetamido]-1H-1,2,3-triazol-1-yl}butyl)-N-{[2-fluoro-5-(trifluoromethoxy)phenyl]methyl}-1H-1,2,3-triazole-4-carboxamide], in assay [1], the IC50 is under 100 nM. In assay [2], this molecule displayed an EC50 of under 100 nM.
With `O=C(Cc1cc(Cl)ccc1F)Nc1cn(CCCCn2cc(C(=O)NCc3ncccc3F)nn2)nn1` [Example 387, 1-(4-{4-[2-(5-chloro-2-fluorophenyl)acetamido]-1H-1,2,3-triazol-1-yl}butyl)-N-[(3-fluoropyridin-2-yl)methyl]-1H-1,2,3-triazole-4-carboxamide], the IC50 in assay [1] was in the range of 100 to 500 nM. Further, the EC50 in assay [2] was in the range of 500 to 5000 nM.
As to `Cc1ccc(CNC(=O)c2cn(CCCCn3cc(NC(=O)Cc4cc(Cl)ccc4F)nn3)nn2)cn1` [Example 388, 1-(4-{4-[2-(5-chloro-2-fluorophenyl)acetamido]-1H-1,2,3-triazol-1-yl}butyl)-N-[(6-methylpyridin-3-yl)methyl]-1H-1,2,3-triazole-4-carboxamide], in assay [1], the IC50 was under 100 nM. Also, the EC50 in assay [2] was 100 to 500 nM.
Taken in the same sequence, the figures for `O=C(CN1CC(F)C1)Nc1cn(CC(F)CCn2cc(C(=O)NCc3ccccn3)nn2)nn1` (stereo not shown) [Example 389, 1-(3-fluoro-4-{4-[2-(3-fluoroazetidin-1-yl)acetamido]-1H-1,2,3-triazol-1-yl}butyl)-N-(pyridin-2-ylmethyl)-1H-1,2,3-triazole-4-carboxamide] were 500 to 5000 nM and over 5000 nM.
Regarding `O=C(CN1CC(F)(F)C1)Nc1cn(CC(F)CCn2cc(C(=O)NCc3cc(OC(F)(F)F)ccc3F)nn2)nn1` (stereo not shown) [Example 390, 1-(4-{4-[2-(3,3-difluoroazetidin-1-yl)acetamido]-1H-1,2,3-triazol-1-yl}-3-fluorobutyl)-N-{[2-fluoro-5-(trifluoromethoxy)phenyl]methyl}-1H-1,2,3-triazole-4-carboxamide], the IC50 in assay [1] was under 100 nM. Moreover, the concentration for a half-maximal effect (EC50) in assay [2] was under 100 nM.
As to `O=C(CN1CC(F)(F)C1)Nc1cn(CC(F)CCn2cc(C(=O)NCc3cccc(OC(F)(F)F)c3)nn2)nn1` (stereo not shown) [Example 391, 1-(4-{4-[2-(3,3-difluoroazetidin-1-yl)acetamido]-1H-1,2,3-triazol-1-yl}-3-fluorobutyl)-N-{[3-(trifluoromethoxy)phenyl]methyl}-1H-1,2,3-triazole-4-carboxamide], the IC50 in assay [1] is under 100 nM. The same molecule yielded an EC50 in assay [2] of 100 to 500 nM.
Taken in the same sequence, the figures for `O=C(CN1CC(F)(F)C1)Nc1cn(CC(F)CCn2cc(C(=O)NCc3ccccn3)nn2)nn1` (stereo not shown) [Example 392, 1-(4-{4-[2-(3,3-difluoroazetidin-1-yl)acetamido]-1H-1,2,3-triazol-1-yl}-3-fluorobutyl)-N-(pyridin-2-ylmethyl)-1H-1,2,3-triazole-4-carboxamide] were 500 to 5000 nM and over 5000 nM.
Taken in the same sequence, the figures for `Cc1ccc(CNC(=O)c2cn(CCC(F)Cn3cc(NC(=O)CN4CC(F)(F)C4)nn3)nn2)cn1` (stereo not shown) [Example 393, 1-(4-{4-[2-(3,3-difluoroazetidin-1-yl)acetamido]-1H-1,2,3-triazol-1-yl}-3-fluorobutyl)-N-[(6-methylpyridin-3-yl)methyl]-1H-1,2,3-triazole-4-carboxamide] were 500 to 5000 nM and 500 to 5000 nM.
`O=C(Cc1cccc(OC(F)(F)F)c1)Nc1cn(CC(F)CCn2cc(C(=O)NCc3cc(C(F)(F)F)ccn3)nn2)nn1` (stereo not shown) [Example 394]: the IC50 in assay [1] was under 100 nM. The same molecule returned a 50% effective concentration (EC50) in assay [2] of under 100 nM.
Take `O=C(Cc1cc(OC(F)(F)F)ccc1F)Nc1cn(CC(F)CCn2cc(C(=O)NCc3cc(C(F)(F)F)ccn3)nn2)nn1` (stereo not shown) [Example 395, 1-[3-fluoro-4-(4-{2-[2-fluoro-5-(trifluoromethoxy)phenyl]acetamido}-1H-1,2,3-triazol-1-yl)butyl]-N-{[4-(trifluoromethyl)pyridin-2-yl]methyl}-1H-1,2,3-triazole-4-carboxamide]: the half-inhibitory concentration (IC50) in assay [1] is under 100 nM. In addition, the EC50 in assay [2] was under 100 nM.
For `Cc1ccc(CNC(=O)c2cn(CC(F)CCn3cc(NC(=O)Cc4cccc(OC(F)(F)F)c4)nn3)nn2)cn1` (stereo not shown) [Example 396, 1-[2-fluoro-4-(4-{2-[3-(trifluoromethoxy)phenyl]acetamido}-1H-1,2,3-triazol-1-yl)butyl]-N-[(6-methylpyridin-3-yl)methyl]-1H-1,2,3-triazole-4-carboxamide], the half-maximal inhibitory concentration (IC50) in assay [1] was under 100 nM. Further, the concentration for a half-maximal effect (EC50) in assay [2] was under 100 nM.
With `CNC(=O)c1cn(CC(F)CCc2nnc(NC(=O)Cc3cc(-c4cccc(OC(F)(F)F)c4)ccn3)s2)nn1` (stereo not shown) [Example 397, 1-(2-fluoro-4-(5-(2-(4-(3-(trifluoromethoxy)phenyl)pyridin-2-yl)acetamido)-1,3,4-thiadiazol-2-yl)butyl)-N-methyl-1H-1,2,3-triazole-4-carboxamide 2,2,2-trifluoroacetate], the IC50 in assay [1] is under 100 nM. The molecule further returned an EC50 in assay [2] of under 100 nM.
`O=C(Cc1cc(OC(F)(F)F)ccc1F)Nc1cn(CCC(F)Cn2cc(C(=O)NCc3ccccn3)nn2)nn1` (stereo not shown) [Example 398, 1-[2-fluoro-4-(4-{2-[2-fluoro-5-(trifluoromethoxy)phenyl]acetamido}-1H-1,2,3-triazol-1-yl)butyl]-N-(pyridin-2-ylmethyl)-1H-1,2,3-triazole-4-carboxamide]: in assay [1], the half-inhibitory concentration (IC50) was under 100 nM. The molecule further displayed an EC50 in assay [2] of under 100 nM.
As to `O=C(Cc1ccccn1)Nc1cn(CC(F)CCn2cc(C(=O)NCc3cc(C(F)(F)F)ccn3)nn2)nn1` (stereo not shown) [Example 399, 1-(3-fluoro-4-{4-[2-(pyridin-2-yl)acetamido]-1H-1,2,3-triazol-1-yl}butyl)-N-{[4-(trifluoromethyl)pyridin-2-yl]methyl}-1H-1,2,3-triazole-4-carboxamide], the IC50 in assay [1] is under 100 nM. Also, in assay [2], the concentration for a half-maximal effect (EC50) was 100 to 500 nM.
For the molecule `Cc1ccc(CC(=O)Nc2cn(CC(F)CCn3cc(C(=O)NCc4cc(C(F)(F)F)ccn4)nn3)nn2)cn1` (stereo not shown) [Example 400, 1-(3-fluoro-4-{4-[2-(6-methylpyridin-3-yl)acetamido]-1H-1,2,3-triazol-1-yl}butyl)-N-{[4-(trifluoromethyl)pyridin-2-yl]methyl}-1H-1,2,3-triazole-4-carboxamide], the half-maximal inhibitory concentration (IC50) in assay [1] is under 100 nM. The same molecule yielded an EC50 in assay [2] of 100 to 500 nM.
Turning to `O=C(CN1CC(F)C1)Nc1cn(CC(F)CCn2cc(C(=O)NCc3cc(C(F)(F)F)ccn3)nn2)nn1` (stereo not shown) [Example 401, 1-(3-fluoro-4-{4-[2-(3-fluoroazetidin-1-yl)acetamido]-1H-1,2,3-triazol-1-yl}butyl)-N-{[4-(trifluoromethyl)pyridin-2-yl]methyl}-1H-1,2,3-triazole-4-carboxamide], the IC50 in assay [1] lay within 100 to 500 nM. This molecule also gave an EC50 in assay [2] of 500 to 5000 nM.
`O=C(CN1CC(F)(F)C1)Nc1cn(CC(F)CCn2cc(C(=O)NCc3cc(C(F)(F)F)ccn3)nn2)nn1` (stereo not shown) [Example 402, 1-(4-{4-[2-(3,3-difluoroazetidin-1-yl)acetamido]-1H-1,2,3-triazol-1-yl}-3-fluorobutyl)-N-{[4-(trifluoromethyl)pyridin-2-yl]methyl}-1H-1,2,3-triazole-4-carboxamide]: in assay [1], the half-inhibitory concentration (IC50) was in the range of 100 to 500 nM. The EC50 in assay [2] lay in the range of 500 to 5000 nM.
Taken in the same sequence, the figures for `O=C(Cc1cccc(OC(F)(F)F)c1)Nc1cn(CCC(F)Cn2cc(C(=O)NCc3ccccn3)nn2)nn1` (stereo not shown) [Example 403, 1-[2-fluoro-4-(4-{2-[3-(trifluoromethoxy)phenyl]acetamido}-1H-1,2,3-triazol-1-yl)butyl]-N-(pyridin-2-ylmethyl)-1H-1,2,3-triazole-4-carboxamide] were under 100 nM and under 100 nM.
Turning to `O=C(Cc1cc(OC(F)(F)F)ccc1F)Nc1cn(CCC(F)Cn2cc(C(=O)NCc3cc(OC(F)(F)F)ccc3F)nn2)nn1` (stereo not shown) [Example 404, 1-[2-fluoro-4-(4-{2-[2-fluoro-5-(trifluoromethoxy)phenyl]acetamido}-1H-1,2,3-triazol-1-yl)buty]-N-{[2-fluoro-5-(trifluoromethoxy)phenyl]methyl}-1H-1,2,3-triazole-4-carboxamide], the concentration for half-maximal inhibition (IC50) in assay [1] is under 100 nM. The molecule further came in with a concentration giving a half-maximal response (EC50) in assay [2] of under 100 nM.
As for `Cc1ccc(CC(=O)Nc2cn(CCC(F)Cn3cc(C(=O)NCc4cc(OC(F)(F)F)ccc4F)nn3)nn2)cn1` (stereo not shown) [Example 405, 1-(2-fluoro-4-{4-[2-(6-methylpyridin-3-yl)acetamido]-1H-1,2,3-triazol-1-yl}butyl)-N-{[2-fluoro-5-(trifluoromethoxy)phenyl]methyl}-1H-1,2,3-triazole-4-carboxamide], the IC50 in assay [1] was under 100 nM. In assay [2], this molecule yielded a 50% effective concentration (EC50) of under 100 nM.
As for `O=C(Cc1cccc(OC(F)(F)F)c1)Nc1cn(CCC(F)Cn2cc(C(=O)NCc3ncccc3F)nn2)nn1` (stereo not shown) [Example 406, 1-[2-fluoro-4-(4-{2-[3-(trifluoromethoxy)phenyl]acetamido}-1H-1,2,3-triazol-1-yl)butyl]-N-[(3-fluoropyridin-2-yl)methyl]-1H-1,2,3-triazole-4-carboxamide], the 50% inhibitory concentration (IC50) in assay [1] is under 100 nM. In assay [2], the EC50 was under 100 nM.
As for `O=C(Cc1cccc(OC(F)(F)F)c1)Nc1cn(CCC(F)Cn2cc(C(=O)NCc3cc(C(F)(F)F)ccn3)nn2)nn1` (stereo not shown) [Example 407, 1-[2-fluoro-4-(4-{2-[3-(trifluoromethoxy)phenyl]acetamido}-1H-1,2,3-triazol-1-yl)butyl]-N-{[4-(trifluoromethyl)pyridin-2-yl]methyl}-1H-1,2,3-triazole-4-carboxamide], the IC50 in assay [1] is under 100 nM. The molecule also gave a 50% effective concentration (EC50) in assay [2] of under 100 nM.
